These results are taken from patent US11931347B2, “Method of screening for agents for differentiating stem cells” (MINERVA BIOTECHNOLOGIES CORPORATION, priority 2015, dated 2024).

In experiment [1] the test system is T47D breast cancer cells. As to the kind of experiment: cancer cell migration, invasion assay (Platypus/Oris system). The class given is cell-based, human. As to conditions: T47D; for inhibition of cancer cell migration: 120 hours; for IC50: Homo sapiens, curves calculated from 72 hour post dosing time point, read-out: IC50 of inhibition of cancer cell migration. The method, then:
We then tested an expanded panel of agents, including agents known to inhibit cancer growth or migration (FIG. 17) (Horm et al., 2012; Meng & Yue, 2014; Zhen et al., 2014), which is characteristic of aggressive or metastatic cancers. We also synthesized a series of novel small molecules, tested them in the stem cell drug screening assay, and then synthesized analogs of the best hits. These small molecules are pictured in FIGS. 18-27. Both the known compounds and the novel compounds were tested in the stem cell drug screening assay. The effects of the small molecules on naïve versus primed state stem cells are shown in the photographs of FIGS. 29-72. The small molecules pictured in FIGS. 17-27 and the biologicals were also tested in a cancer cell migration assay. A structure activity relationship table is seen in FIG. 28. Potent cancer cell migration is characteristic of cancer cell invasion of other tissues and of metastasis. Typical migration assays involve coating a cell culture plate with fibronectin, collagen or the like, plating cancer cells and making a scar across through the cells and measuring the time it takes for the cancer cells to invade the void space. An alternative approach that gives more reliable data is the Platypus System which is a special multi-well cell culture plate with a juxtaposed set of plugs that block off a circle in the center of each well. Cancer cells are plated while the plugs are in place, then they are removed after the cells attach to the plate surface. […] A bar graph summarizing the results of the known anti-migration compounds compared to the anti-MUC1* Fab E6 and the first few small molecules synthesized is shown in FIG. 73. The effect of two novel small molecules MN1186 and MN1194, compared to the known anti-migration molecule SU11274, is shown in FIG. 75A-75U. FIG. 75V is a graph showing the measured inhibition of cancer cell migration at time 0, 24 hours or 48 hours for a number of compounds. […] FIG. 75X is a graph showing how IC50's of the small molecules of the invention were measured and calculated.
Percent inhibition of cancer cell migration was performed in a wound healing assay. The Percent area that the invading cancer cells occupied, in the presence of a drug candidate compared to the controls, was quantified by Image J cell software which enables cell counting from photographs. IC50's were calculated by performing migration experiments at several compound concentrations and then applying Hill's equation. Inhibition of cancer cell proliferation was quantified by automated cell counting in the presence or absence of a drug candidate. Here, the potency of the drug candidate was simply scored 4 for the highest degree of inhibition and 0 for the lowest. […] The effect of each drug candidate was scored 0-4, with 4 being the highest in inhibiting cell proliferation (FIG. 28).
For the cancer cell migration experiment cancer cells were plated at varying densities into an Oris Cell Migration Assay Collagen-1 coated 96-well plate (Platypus Technologies LLC, Madison, Wis.). The Collagen-1 coated 96-well plate incorporates a specific vacuum plug which attaches to the bottom of each well, creating an area in which the cells cannot grow into. Once the cells have been plated at high densities into each well, they are allotted an 18-24 hour time period to attach to the bottom of the wells. Post-24 hour plugs are removed from the plate and then small molecule analogs are added to the wells. Images are taken of each well and represent time 0 (T=0) for each well. Images are taken of the wells at the 24, 48, 72, 96 and 120 hour time points. Data analysis is conducted using the images taken at these specific time point. Images are imported into ImageJ (Rasband, W. S., ImageJ, U. S. National Institutes of Health, Bethesda, Md., USA, http://imagej.nih.gov/ij/, 1997-2016.) and the area remaining free of cells is calculated. […]

Experiment [2] has as its system human primed state stem cells. As to the kind of experiment: stem cell drug screening assay on primed state stem cells. More on the design: key to effect on primed state stem cells, score: “−” indicates that at 6 uM the drug candidate did not have an obvious effect on the pluripotency or proliferation of the stem cells; A “+” indicates a mild effect; a score of −, or +, ++, +++, or ++++ is given; a score of −, or +, ++, +++, or ++++ is given; “++++” indicates a profound effect on pluripotency or proliferation. The class given is cell-based. On the procedure:
(§1) The stem cell screening assay, was performed in both the presence and absence of the stem cell growth factors: NME7AB for growing naïve stem cells or FGF for growing primed stem cells. If the cognate growth factor was present, then the biological or small molecule would have to compete away the growth factor to get an effect. Therefore, we expected to see more of an effect when the growth factor, FGF for primed stem cells or NME7AB or NME1 dimers for naïve stem cells, was absent. The effect of the compounds on stem cells was visually determined and compounds were ranked 0-4, with 4 being the greatest effect and 0 being no observable effect. The major effect that was observed was a change from pluripotent stem cell morphology, which is a cobblestone pattern of small round cells with a large nucleus to cytoplasm ratio, to that of differentiating stem cells, which are elongated, large and flattened cells with a smaller nucleus to cytoplasm ratio. […] The compounds were added to a final concentration of 6 uM to either naïve state stem cells or primed state stem cells. In this particular case, the naïve state stem cells were maintained in a naïve state by culturing in a media containing NME7AB or NME1 dimers. However, other methods such as 2i and 5i (Silva et al., 2008, Nichols and Smith, 2009, Theunissen et al., 2014)] can be used to maintain stem cells in a more naïve state. In this case primed state stem cells were cultured in bFGF over a layer of MEFs, although it is known that any bFGF containing media will maintain stem cells in the primed state.
Stem cells whether embryonic or induced pluripotent stem (iPS) cells were cultured in a minimal, serum-free media that contained human recombinant bFGF at a concentration of 8 ng/mL. The stem cells were plated over a layer of inactivated mouse embryonic fibroblasts, aka MEFs, which secrete additional uncharacterized growth factors and cytokines.
(§2) Human naïve state and primed stem cells were cultured in parallel for at least 5 passages to guarantee normal differentiation-free growth. The stem cells were plated in 12-well cell culture plates with 50,000 cells per well. Cells were cultured in their respective media, either bFGF media or NME7AB media for 24 hours. Media was then removed and replaced with media devoid of bFGF or NME7AB, when indicated. Agents being tested for their ability to induce differentiation of naïve stem cells were added to the media at the concentrations indicated. After 72 hours, photographs were taken see FIGS. 1-10.
(§3) Human naïve state and primed stem cells were cultured in parallel for at least 5 passages to guarantee normal differentiation-free growth. The stem cells were plated in 12-well cell culture plates with 50,000 cells per well. Cells were cultured in their respective media, either bFGF media or NME7AB media for 24 hours. Media was then removed and replaced with media devoid of bFGF or NME7AB. […] Media was changed after 48 hours and replaced with fresh media containing the BRD4 inhibitors. After 4 days the experiment was stopped. Photographs were taken and cell pellets collected for further analysis, see FIGS. 11-16.

Experiment [3] relates to human naïve state stem cells. As to the kind of experiment: stem cell drug screening assay on naïve state stem cells. The arrangement: key to effect on naïve stem cells, score: “−” indicates that at 6 uM the drug candidate did not have an obvious effect on the pluripotency or proliferation of the stem cells; A “+” indicates a mild effect; a score of −, or +, ++, +++, or ++++ is given; a score of −, or +, ++, +++, or ++++ is given; “++++” indicates a profound effect on pluripotency or proliferation. The class given is cell-based. Particulars: 6 uM, 3 days, NME7AB absent. On the procedure: as §1
Stem cells whether embryonic or induced pluripotent stem (iPS) cells were cultured in a minimal, serum-free media that contained human recombinant NME7AB at a concentration of 2-32 nM wherein 4-8 nM is preferred and 4 nM is more preferred. To facilitate surface attachment, cell culture plates were coated with an anti-MUC1* monoclonal antibody called MN-C3 or C3 or MN-C8 at a concentration of 2-100 ug/mL coating solution, wherein 3-50 ug/mL is preferred and 6-12.5 ug/mL is more preferred. In these experiments, 12.5 ug/mL of MN-C3 was used. Antibody coated plates were incubated at 4 degrees C. overnight prior to plating stem cells. A Rho kinase I inhibitor was added to enhance surface attachment. In some cases, NME7AB was substituted with human recombinant NME1 dimers which also induce stem cells to revert to a naïve-like state.
as §2, §3

Experiment [4] relates to T47D breast cancer cells. As to the kind of experiment: cancer cell proliferation assay (Calcein live cell stain). The class given is cell-based, human. As to conditions: T47D, Calcein assay after 120 hours, 40-2.5 uM. On the procedure:
These analogs of MN1194 and 1186 were also tested in a cell growth assay (FIGS. 107A1-107H6 and FIG. 108A1-108H6, respectively). In this experiment, both parent compound and analogs thereof were added to normal cell culture media to final concentrations of 40 uM, 20 uM, 10 uM, 5 uM or 2.5 uM. For comparison, previously known cancer cell migration inhibitors SU11274 and MN1204 were included in the same experiment. […] Relative cell proliferation is quantified on a standard plate reader that reads the fluorescence of the Calcein that is taken up by live cells.
Small molecule inhibition of cancer cell proliferation studies were also performed on several cancer sub-types. […] The small molecules of the invention had the most robust effect on T47D breast cancer cells, which are highly positive for MUC1* growth factor receptor, and its activating ligands NME7AB and NME7-X1.
For the cancer cell proliferation experiment cancer cells were plated at constant densities (6000 cells/well) into a 96-well White-walled/Clear-bottom Tissue Culture Treated plate (Corning Incorporated, Big Flats, N.Y.). Small molecule analogs are added at T=24 hours in media with 2% FBS. Following the addition of the small molecules, the cells remain untouched for 120 hours with visual confirmations/inspections at 24, 48, 72 and 96 hours post plating. At the 120 hour mark a calcein fluorescence assay (Thermo Fisher Scientific, Waltham, Mass.) is performed on the plate. Calcein fluorescence (final concentration 0.5 uM) is used to assess cell viability. Cancer cell fluorescence is measured in a TECAN SAFIRE^2 spectrophotometer plate reader. The plate is then imaged using an Olympus IX71 fluorescence imaging microscope and montage of the resulting images are assembled using ImageJ.

As for `CC(C)CC1c2[nH]c3ccccc3c2CCN1C(=O)CCCCNC(=O)OC(C)(C)C` (centres unmarked) [MN1194], the “inhibition of cancer cell migration” value with T47D breast cancer cells [1] is recorded as “most potent inhibitors of cancer cell migration”. For the same molecule, the “effect on primed stem cell pluripotency, growth or differentiation (visually determined)” value in experiment [2] (6 uM, 3 days) is on record as “barely affected”. The “effect on naïve stem cells, score” value in experiment [3] was “++++”.

Take `Cc1ccc2[nH]c3c(c2c1)CCN(C(=O)C1CCC(CNC(=O)OC(C)(C)C)CC1)C3CC(C)C` (centres unmarked) [MN1265]: the IC50 in the experiment on T47D breast cancer cells [1] was 770 nM.

Consider `Cc1sc2c(c1C)C(c1ccc(Cl)cc1)=N[C@@H](CC(=O)OC(C)(C)C)c1nnc(C)n1-2` [JQ1(−), JQ1], for which, in experiment [2] (treated for 3 days, bFGF absent), the “induction of differentiation of primed state stem cells” value is given as “None of these agents appeared to induce differentiation”. In the case of `CC(C)CC1c2[nH]c3ccc(F)cc3c2CCN1C(=O)C1CCC(CNC(=O)OC(C)(C)C)CC1` (centres unmarked) [MN1266], the IC50 in the experiment on T47D breast cancer cells [1] is 1290 nM.

With `CC(C)CC1c2[nH]c3ccccc3c2CCN1C(=O)CCCNC(=O)OC(C)(C)C` (centres unmarked) [MN1190], in the experiment on T47D breast cancer cells [4], the “inhibition of cancer cell proliferation relative to parent compounds” value is “inhibit cancer cell proliferation better than parent compounds”. Further, the “inhibition of cancer cell migration” value with T47D breast cancer cells [1] is given as “improvements over MN1186”. The matching figures for `CC(C)CC1c2[nH]c3cc(Cl)ccc3c2CCN1C(=O)CNC(=O)OC(C)(C)C` (centres unmarked) [MN1228]: “inhibit cancer cell proliferation better than parent compounds” and “improvements over MN1186”.

`CC(C)CC1c2[nH]c3ccccc3c2CCN1C(=O)CNC(=O)OC(C)(C)C` (centres unmarked) [MN1186]: in the experiment with T47D breast cancer cells [1], the “inhibition of cancer cell migration” value is on record as “most potent inhibitors of cancer cell migration”. Also, in experiment [2] (6 uM, 3 days, FGF absent), the “effect on primed state stem cells, score” value is on record as “++”. Further, the “effect on naïve stem cells, score” value in experiment [3] is recorded as “++++”.

For `CC(C)CC1c2[nH]c3ccccc3c2CCN1C(=O)CCCCCNC(=O)OC(C)(C)C` (centres unmarked) [MN1195], the “inhibition of cancer cell proliferation relative to parent compounds” value with T47D breast cancer cells [4] was “inhibit cancer cell proliferation better than parent compounds”. Further, the “inhibition of cancer cell migration” value in the experiment on T47D breast cancer cells [1] is on record as “improvements over MN1186”. For `CC(C)CC1c2[nH]c3cc(F)ccc3c2CCN1C(=O)CCCCNC(=O)OC(C)(C)C` (centres unmarked) [MN1229], the “inhibition of cancer cell proliferation relative to parent compounds” value in the experiment on T47D breast cancer cells [4] was “inhibit cancer cell proliferation better than parent compounds”. Also, in the experiment on T47D breast cancer cells [1], the “inhibition of cancer cell migration” value was “improvements over MN1186”.
